Reference: patent publication US20180344881A1, “FORMULATIONS FOR 2-HETEROARYL SUBSTITUTED BENZOFURANS” (Navidea Biopharmaceuticals, Inc., priority 2015, published 2018)

Experiments:
[1] = Filter type and excipient compatibility screen, retention of tracer on filter (FIG. 1); assay type: physicochemical; conditions: in PEG400 at levels of the excipient exceeding 10%; Sartorius Minisart 16596 HY 0.2 μm (FIG. 1)
Protocol: In examples of experiments, tests were performed on prospective formulations with different filter types to screen for compatibility of the filter material. Both cellulose and polyethersulfone membranes retained unacceptable quantities of the drug substance, with the lowest retention values obtained using polyvinylidene difluoride (PVDF) and polytetrafluoroethylene (PTFE) derived membranes.
In this case, a solution of [^18F]NAV4694 in PEG400 appears to have low retention at levels of the excipient exceeding 10%.
In the ensuing experiments, each of the excipients were formulated at multiple concentration levels (within acceptable ranges) then treated with small quantities of [^18F]NAV4694 and finally filtered through the preferred filter units. The percent retention of drug substance was then directly calculated through measurement of the actual quantity of radioactivity retained on the filter and compared to that remaining in the filtrate.

[2] = [^18F]NAV4694 solution for injection: stability (radiochemical purity over time); assay type: physicochemical
Protocol: [^18F]NAV4694 solution for injection was tested over a range of radioactivity concentration values to determine the capacity and potential expiry at given concentrations.

[3] = radioactivity concentration below about 75 mCi/mL
[4] = very high activity levels (>100 mCi/mL)

In the case of CNc1ccc(-c2cc3cc(O)ccc3o2)c([18F])n1 [[^18F]NAV4694, 2-[2-(^18F)fluoro-6-(methylamino)-3-pyridinyl)-5-benzofuranol], the “retention of the tracer on the filter” value [1] is reported as “low retention”, the initial radiochemical purity [2, 3] is reported as “high initial radiochemical purity” and the “time over which high radiochemical purity is retained” value [2, 3] is reported as “retained over at least ten hours”. For the same molecule, the decomposition [2, 4] was “accelerated decomposition” and the initial radiochemical purity [2, 4] was “lower initial radiochemical purity”.
